Source: patent publication US7253211B2, “(R)-chiral halogenated substituted fused heterocyclic amino compounds useful for inhibiting cholesterol ester transfer protein activity” (Pfizer Inc., priority 1999, dated 2007)

Target: T1, CETP (Homo sapiens, UniProt P11597)
T1 sequence (P11597 18-493): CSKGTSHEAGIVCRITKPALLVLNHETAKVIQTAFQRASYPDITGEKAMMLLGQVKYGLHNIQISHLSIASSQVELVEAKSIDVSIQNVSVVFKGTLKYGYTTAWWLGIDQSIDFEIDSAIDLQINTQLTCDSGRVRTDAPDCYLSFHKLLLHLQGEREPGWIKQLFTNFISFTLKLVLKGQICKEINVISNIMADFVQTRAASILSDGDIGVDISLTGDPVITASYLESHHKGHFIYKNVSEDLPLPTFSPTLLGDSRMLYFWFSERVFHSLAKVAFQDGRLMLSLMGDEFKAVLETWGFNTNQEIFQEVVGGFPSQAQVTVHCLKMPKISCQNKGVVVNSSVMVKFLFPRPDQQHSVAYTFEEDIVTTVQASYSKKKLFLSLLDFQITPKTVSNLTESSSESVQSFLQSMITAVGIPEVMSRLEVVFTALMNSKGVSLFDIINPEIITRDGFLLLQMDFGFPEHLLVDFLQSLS
Assay: Assay of CETP Inhibition Using Purified Components (Reconstituted Buffer Assay)
Assay type: biochemical
Parameters: made in house; host or cells: CHO cells (serum-free conditioned medium)
Conditions: Reconstituted Buffer Assay; read-out: IC50
Procedure: Assay of CETP Inhibition Using Purified Components (Reconstituted Buffer Assay)
The ability of compounds to inhibit CETP activity was assessed using an in vitro assay that measured the rate of transfer of radiolabeled cholesteryl ester ([^3H]CE) from HDL donor particles to LDL acceptor particles. Details of the assay are provided by Glenn, K. C. et al. (Glenn and Melton, “Quantification of Cholesteryl Ester Transfer Protein (CETP): A) CETP Activity and B) Immunochemical Assay of CETP Protein,” Meth. […] To measure CETP activity, [^3H]CE-labeled-HDL, LDL, CETP and assay buffer (50 mM tris(hydroxymethyl)aminomethane, pH 7.4; 150 mM sodium chloride; 2 mM ethylenediamine-tetraacetic acid (EDTA); 1% bovine serum albumin) were incubated in a final volume of 200 μL, for 2 hours at 37° C. in 96 well plates. […] The inhibitors were then diluted 1:1 with CETP in assay buffer, and then 25 μL of that solution was mixed with 175 μL of lipoprotein pool for assay. Following incubation, LDL was differentially precipitated by the addition of 50 μL of 1% (w/v) dextan sulfate/0.5 M magnesium chloride, mixed by vortex, and incubated at room temperature for 10 minutes. A potion of the solution (200 μL) was transferred to a filter plate (Millipore). After filtration, the radioactivity present in the precipitated LDL was measured by liquid scintillation counting.
This value was defined as the IC50.

Row | SMILES | IC50
1 | OC(CCl)CN(Cc1cccc(OC(F)(F)F)c1)c1cccc(Oc2ccccc2)c1 (single isomer, unassigned) [Example 5] | 3400 nM
2 | OC(CCl)CN(Cc1cccc(OC(F)(F)F)c1)c1cccc(Oc2ccccc2)c1 (single isomer, unassigned) [Example 6] | 68000 nM
3 | COc1cc(N(Cc2cccc(SC(F)(F)F)c2)C[C@@H](O)C(F)(F)F)cc(OC)c1OC [Example 7, (2R)-3-[(3,4,5-trimethoxyphenyl)[[3-(trifluoromethylthio)phenyl]methyl]-amino]-1,1,1-trifluoro-2-propanol] | 4900 nM
4 | CCc1cc(Oc2cccc(N(Cc3ccc(F)c(C(F)(F)F)c3)C[C@@H](O)C(F)(F)F)c2)ccc1Cl [Example 13] | 130 nM
5 | CCc1cc(Oc2cccc(N(Cc3ccc(F)cc3C(F)(F)F)C[C@@H](O)C(F)(F)F)c2)ccc1Cl [Example 15] | 1600 nM
6 | CCc1cc(Oc2cccc(N(Cc3c(F)cccc3C(F)(F)F)C[C@@H](O)C(F)(F)F)c2)ccc1Cl [Example 17] | 18000 nM
7 | O[C@H](CN(Cc1cccc(OC(F)(F)C(F)F)c1)c1cccc(OCc2cc(F)cc(F)c2)c1)C(F)(F)F [Example 21] | 110 nM
8 | O[C@H](CN(Cc1cccc(OC(F)(F)F)c1)c1cccc(OCc2cccc(OC(F)(F)F)c2)c1)C(F)(F)F [Example 24, (2R)-3-[[3-[[3-(trifluoromethoxy)phenyl]methoxy]phenyl][[3-(trifluoromethoxy)-phenyl]methyl]amino]-1,1,1-trifluoro-2-propanol] | 330 nM
9 | O[C@H](CN(Cc1cccc(OC(F)(F)F)c1)c1cccc(OCc2ccc(OC(F)(F)F)cc2)c1)C(F)(F)F [Example 25] | 1400 nM
10 | O[C@H](CN(Cc1cccc(OC(F)(F)F)c1)c1cccc(OCc2cc(C(F)(F)F)cc(C(F)(F)F)c2)c1)C(F)(F)F [Example 26] | 530 nM
11 | O[C@H](CN(Cc1cccc(OC(F)(F)F)c1)c1cccc(OCc2cccc(C(F)(F)F)c2)c1)C(F)(F)F [Example 27] | 440 nM
12 | O[C@H](CN(Cc1cccc(OC(F)(F)F)c1)c1cccc(OCc2ccccc2)c1)C(F)(F)F [Example 29] | 720 nM
13 | CC(C)Oc1cccc(N(Cc2cccc(OC(F)(F)F)c2)C[C@@H](O)C(F)(F)F)c1 [Example 30] | 2700 nM
14 | O[C@H](CN(Cc1cccc(OC(F)(F)F)c1)c1cccc(OCC2CCCCC2)c1)C(F)(F)F [Example 31] | 3500 nM
15 | O[C@H](CN(Cc1cccc(OC(F)(F)F)c1)c1cccc(OC2CCCC2)c1)C(F)(F)F [Example 32] | 1200 nM
16 | Cc1cc(Oc2cccc(N(Cc3cccc(OC(F)(F)F)c3)C[C@@H](O)C(F)(F)F)c2)ccc1F [Example 33, (2R)-3-[[3-(4-fluoro-3-methylphenoxy)phenyl][[3-(trifluoromethoxy)-phenyl]methyl]amino]-1,1,1-trifluoro-2-propanol] | 150 nM
17 | CC(C)c1cccc(Oc2cccc(N(Cc3cccc(OC(F)(F)F)c3)C[C@@H](O)C(F)(F)F)c2)c1 [Example 35] | 280 nM
18 | Cc1ccc(Oc2cccc(N(Cc3cccc(OC(F)(F)F)c3)C[C@@H](O)C(F)(F)F)c2)cc1C [Example 36] | 200 nM
19 | Cc1cc(Oc2cccc(N(Cc3cccc(OC(F)(F)F)c3)C[C@@H](O)C(F)(F)F)c2)ccc1Cl [Example 37] | 210 nM
20 | CC(C)(C)c1cccc(Oc2cccc(N(Cc3cccc(OC(F)(F)F)c3)C[C@@H](O)C(F)(F)F)c2)c1 [Example 38] | 180 nM
21 | O[C@H](CN(Cc1cccc(OC(F)(F)F)c1)c1cccc(Oc2ccc(Cl)c(Cl)c2)c1)C(F)(F)F [Example 39] | 1600 nM
22 | O[C@H](CN(Cc1cccc(OC(F)(F)F)c1)c1cccc(Oc2ccc3c(c2)CCCC3)c1)C(F)(F)F [Example 40] | 230 nM
23 | O[C@H](CN(Cc1cccc(OC(F)(F)F)c1)c1nc(Cl)nc(Oc2ccc(F)cc2)n1)C(F)(F)F [Example 44, (2R)-N-[2-chloro-6-(p-fluorophenoxy)-1,3,5-triazin-4-yl]-3-[[[3-(trifluoromethoxy)phenyl]methyl]amino]-1,1,1-trifluoro-2-propanol] | 6800 nM
